# According to paper PMC12454493, “Insight on novel sulfamoylphenyl pyrazole derivatives as anticancer carbonic anhydrase inhibitors” (Molecular Diversity, 2024):
# “And” between values parts separate entries of the source, which are not always exact repeats. Equal values may be shown once.
# How the values were obtained:
# SR = assay: NCI-60 one-dose SRB screen (Leukemia); format: cell-based; conditions: Homo sapiens, single dose 10 µM, 48 h, read-out: Growth inhibition percent (GI %)
# K-562 = assay: NCI-60 one-dose SRB screen (Leukemia); format: cell-based; conditions: Homo sapiens, K562, single dose 10 µM, 48 h, read-out: Growth inhibition percent (GI %)
# MOLT-4 = assay: NCI-60 one-dose SRB screen (Leukemia); format: cell-based; conditions: Homo sapiens, single dose 10 µM, 48 h, read-out: Growth inhibition percent (GI %)
# HL-60(TB) = assay: NCI-60 one-dose SRB screen (Leukemia); format: cell-based; conditions: Homo sapiens, single dose 10 µM, 48 h, read-out: Growth inhibition percent (GI %)
# RPMI-8226 = assay: NCI-60 one-dose SRB screen (Leukemia); format: cell-based; conditions: Homo sapiens, single dose 10 µM, 48 h, read-out: Growth inhibition percent (GI %)
# CCRF-CEM = assay: NCI-60 one-dose SRB screen (Leukemia); format: cell-based; conditions: Homo sapiens, single dose 10 µM, 48 h, read-out: Growth inhibition percent (GI %)
# UACC-62 = assay: NCI-60 one-dose SRB screen (Melanoma); format: cell-based; conditions: Homo sapiens, single dose 10 µM, 48 h, read-out: Growth inhibition percent (GI %)
# SK-MEL-28 = assay: NCI-60 one-dose SRB screen (Melanoma); format: cell-based; conditions: Homo sapiens, single dose 10 µM, 48 h, read-out: Growth inhibition percent (GI %)
# MDA-MB-435 = assay: NCI-60 one-dose SRB screen (Melanoma); format: cell-based; conditions: Homo sapiens, single dose 10 µM, 48 h, read-out: Growth inhibition percent (GI %)
# MALME-3M = assay: NCI-60 one-dose SRB screen (Melanoma); format: cell-based; conditions: Homo sapiens, single dose 10 µM, 48 h, read-out: Growth inhibition percent (GI %)
# SK-MEL-5 = assay: NCI-60 one-dose SRB screen (Melanoma); format: cell-based; conditions: Homo sapiens, single dose 10 µM, 48 h, read-out: Growth inhibition percent (GI %)
# UACC-257 = assay: NCI-60 one-dose SRB screen (Melanoma); format: cell-based; conditions: Homo sapiens, single dose 10 µM, 48 h, read-out: Growth inhibition percent (GI %)
# SK-MEL-2 = assay: NCI-60 one-dose SRB screen (Melanoma); format: cell-based; conditions: Homo sapiens, single dose 10 µM, 48 h, read-out: Growth inhibition percent (GI %)
# LOX IMVI = assay: NCI-60 one-dose SRB screen (Melanoma); format: cell-based; conditions: Homo sapiens, single dose 10 µM, 48 h, read-out: Growth inhibition percent (GI %)
# M14 = assay: NCI-60 one-dose SRB screen (Melanoma); format: cell-based; conditions: Homo sapiens, single dose 10 µM, 48 h, read-out: Growth inhibition percent (GI %)
# hCA XII = hCA XII (Homo sapiens, UniProt O43570); assay: CA inhibitory activity, spectrophotometric p-NPA assay; format: biochemical; conditions: p-NPA substrate, pH 7.5, 25 °C, triplicate; read-out: IC50 (µM) ± SD hCA XII
# HS 578T = assay: NCI-60 one-dose SRB screen (Breast Cancer); format: cell-based; conditions: Homo sapiens, single dose 10 µM, 48 h, read-out: Growth inhibition percent (GI %)
# MDA-MB-468 = assay: NCI-60 one-dose SRB screen (Breast Cancer); format: cell-based; conditions: Homo sapiens, single dose 10 µM, 48 h, read-out: Growth inhibition percent (GI %)
# MCF-7 = assay: NCI-60 one-dose SRB screen (Breast Cancer); format: cell-based; conditions: Homo sapiens, MCF7, single dose 10 µM, 48 h, read-out: Growth inhibition percent (GI %)
# MDA-MB-231/ATCC = assay: NCI-60 one-dose SRB screen (Breast Cancer); format: cell-based; conditions: Homo sapiens, single dose 10 µM, 48 h, read-out: Growth inhibition percent (GI %)
# PC-3 = assay: NCI-60 one-dose SRB screen (Prostate Cancer); format: cell-based; conditions: Homo sapiens, single dose 10 µM, 48 h, read-out: Growth inhibition percent (GI %)
# DU-145 = assay: NCI-60 one-dose SRB screen (Prostate Cancer); format: cell-based; conditions: Homo sapiens, single dose 10 µM, 48 h, read-out: Growth inhibition percent (GI %)
# hCA IX = hCA IX (Homo sapiens, UniProt Q16790); assay: CA inhibitory activity, spectrophotometric p-NPA assay; format: biochemical; conditions: for IC50: p-NPA substrate, pH 7.5, 25 °C, triplicate, read-out: IC50 (µM) ± SD hCA IX
# Procedure: The software used to calculate CA IC50 along with statistical analysis of the results is GraphPad Prism 9.00. Results were estimated by using one-way ANOVA and the Bonferroni’s multiple comparisons posthoc test was performed (P < 0.05) [46]
# Carbonic anhydrase inhibitory activity:
# The spectrophotometric assay was conducted in HEPES-Tris buffer, NaCl of pH 7.5 (20mM) at 25◦C. Each inhibitory well-consisted of 50 μL of assay buffer solution, 20 μL of hCA enzyme solution (20 ng/μL in Assay Buffer), and 50 μL of test compound in HPLC grade DMSO (maintain 10% of the final concentration). The mixture solution was
# Substrate p-nitrophenyl acetate (p-NPA) (0.7mM) was prepared in HPLC grade methanol and the reaction was started by adding 20 μL to a well in a 96-well-plate. The amount of product formed was measured for 30 min continuously at 1 min intervals at 400 nm in a 96-well-plate using xMARK microplate spectrophotometer, Bio-Rad (USA). The activity of the controlled compound was taken as 100%. All experiments were carried out in triplicates of each used concentration, and results are represented as a
# U251 = assay: NCI-60 one-dose SRB screen (CNS Cancer); format: cell-based; conditions: Homo sapiens, U-251, single dose 10 µM, 48 h, read-out: Growth inhibition percent (GI %)
# SF-539 = assay: NCI-60 one-dose SRB screen (CNS Cancer); format: cell-based; conditions: Homo sapiens, single dose 10 µM, 48 h, read-out: Growth inhibition percent (GI %)
# SNB-75 = assay: NCI-60 one-dose SRB screen (CNS Cancer); format: cell-based; conditions: Homo sapiens, single dose 10 µM, 48 h, read-out: Growth inhibition percent (GI %)
# SF-268 = assay: NCI-60 one-dose SRB screen (CNS Cancer); format: cell-based; conditions: Homo sapiens, single dose 10 µM, 48 h, read-out: Growth inhibition percent (GI %)
# SF-295 = assay: NCI-60 one-dose SRB screen (CNS Cancer); format: cell-based; conditions: Homo sapiens, single dose 10 µM, 48 h, read-out: Growth inhibition percent (GI %)
# SNB-19 = assay: NCI-60 one-dose SRB screen (CNS Cancer); format: cell-based; conditions: Homo sapiens, single dose 10 µM, 48 h, read-out: Growth inhibition percent (GI %)
# SK-OV-3 = assay: NCI-60 one-dose SRB screen (Ovarian cancer); format: cell-based; conditions: Homo sapiens, single dose 10 µM, 48 h, read-out: Growth inhibition percent (GI %)
# OVCAR-8 = assay: NCI-60 one-dose SRB screen (Ovarian cancer); format: cell-based; conditions: Homo sapiens, single dose 10 µM, 48 h, read-out: Growth inhibition percent (GI %)
# IGROV1 = assay: NCI-60 one-dose SRB screen (Ovarian cancer); format: cell-based; conditions: Homo sapiens, IGROV-1, single dose 10 µM, 48 h, read-out: Growth inhibition percent (GI %)
# OVCAR-5 = assay: NCI-60 one-dose SRB screen (Ovarian cancer); format: cell-based; conditions: Homo sapiens, single dose 10 µM, 48 h, read-out: Growth inhibition percent (GI %)
# OVCAR-3 = assay: NCI-60 one-dose SRB screen (Ovarian cancer); format: cell-based; conditions: Homo sapiens, single dose 10 µM, 48 h, read-out: Growth inhibition percent (GI %)
# OVCAR-4 = assay: NCI-60 one-dose SRB screen (Ovarian cancer); format: cell-based; conditions: Homo sapiens, single dose 10 µM, 48 h, read-out: Growth inhibition percent (GI %)
# NCI/ADR-RES = assay: NCI-60 one-dose SRB screen (Ovarian cancer); format: cell-based; conditions: Homo sapiens, single dose 10 µM, 48 h, read-out: Growth inhibition percent (GI %)
# NCI-H226 = assay: NCI-60 one-dose SRB screen (Non-Small Cell Lung Cancer); format: cell-based; conditions: Homo sapiens, single dose 10 µM, 48 h, read-out: Growth inhibition percent (GI %)
# NCI-H322M = assay: as above; format: cell-based; conditions: Homo sapiens, single dose 10 µM, 48 h, read-out: Growth inhibition percent (GI %)
# HOP-62 = assay: as above; format: cell-based; conditions: Homo sapiens, single dose 10 µM, 48 h, read-out: Growth inhibition percent (GI %)
# EKVX = assay: as above; format: cell-based; conditions: Homo sapiens, single dose 10 µM, 48 h, read-out: Growth inhibition percent (GI %)
# NCI-H522 = assay: as above; format: cell-based; conditions: Homo sapiens, single dose 10 µM, 48 h, read-out: Growth inhibition percent (GI %)
# HOP-92 = assay: as above; format: cell-based; conditions: Homo sapiens, single dose 10 µM, 48 h, read-out: Growth inhibition percent (GI %)
# NCI-H23 = assay: as above; format: cell-based; conditions: Homo sapiens, single dose 10 µM, 48 h, read-out: Growth inhibition percent (GI %)
# A549/ATCC = assay: as above; format: cell-based; conditions: Homo sapiens, single dose 10 µM, 48 h, read-out: Growth inhibition percent (GI %)
# NCI-H460 = assay: as above; format: cell-based; conditions: Homo sapiens, single dose 10 µM, 48 h, read-out: Growth inhibition percent (GI %)
# Chain of hCA XII (O43570 25-354): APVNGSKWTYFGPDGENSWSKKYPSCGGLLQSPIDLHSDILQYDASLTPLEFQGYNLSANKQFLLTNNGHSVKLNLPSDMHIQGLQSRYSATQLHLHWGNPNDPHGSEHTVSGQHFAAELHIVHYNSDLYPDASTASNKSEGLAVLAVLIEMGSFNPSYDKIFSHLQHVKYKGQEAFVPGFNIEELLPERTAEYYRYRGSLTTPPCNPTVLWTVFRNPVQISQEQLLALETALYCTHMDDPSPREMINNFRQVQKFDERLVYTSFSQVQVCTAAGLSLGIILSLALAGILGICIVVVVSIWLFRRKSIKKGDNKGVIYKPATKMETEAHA
compound,measurement,setting,value
"CCOC(=O)c1ccc(NC(=O)COC(=O)c2cn(-c3ccc(S(N)(=O)=O)cc3)nc2-c2ccc(OC)cc2)cc1 [Compound 5c, 2-[(4-(Ethoxycarbonyl)phenyl)amino]-2-oxoethyl 3-(4-methoxyphenyl)-1-(4-sulfamoylphenyl)-1H-pyrazole-4-carboxylate]",inhibition at 10 µM,SR,64.6%
same,inhibition at 10 µM,K-562,61.7%
same,inhibition at 10 µM,MOLT-4,65.9%
same,inhibition at 10 µM,HL-60(TB),48.4%
same,inhibition at 10 µM,RPMI-8226,58.6%
same,inhibition at 10 µM,CCRF-CEM,62.6%
same,inhibition at 10 µM,UACC-62,44.5%
same,inhibition at 10 µM,SK-MEL-28,24.6%
same,inhibition at 10 µM,MDA-MB-435,27.3%
same,inhibition at 10 µM,MALME-3M,21%
same,inhibition at 10 µM,SK-MEL-5,34.9%
same,inhibition at 10 µM,UACC-257,25.4%
same,inhibition at 10 µM,SK-MEL-2,23.1%
same,inhibition at 10 µM,LOX IMVI,21.3%
same,inhibition at 10 µM,M14,40.3%
same,IC50,hCA XII,0.27 µM and 0.272 µM
same,inhibition at 10 µM,HS 578T,31.3%
same,inhibition at 10 µM,MDA-MB-468,40%
same,inhibition at 10 µM,MCF-7,48.8%
same,inhibition at 10 µM,MDA-MB-231/ATCC,18.8%
same,inhibition at 10 µM,PC-3,50.9%
same,inhibition at 10 µM,DU-145,14.7%
same,IC50,hCA IX,0.22 ± 0.01 µM
same,inhibition at 10 µM,U251,34.3%
same,inhibition at 10 µM,SF-539,38.7%
same,inhibition at 10 µM,SNB-75,49.3%
same,inhibition at 10 µM,SF-268,28.5%
same,inhibition at 10 µM,SF-295,32.7%
same,inhibition at 10 µM,SNB-19,30.7%
same,inhibition at 10 µM,SK-OV-3,11.6%
same,inhibition at 10 µM,OVCAR-8,5.25%
same,inhibition at 10 µM,IGROV1,< 5%
same,inhibition at 10 µM,OVCAR-5,13.7%
same,inhibition at 10 µM,OVCAR-3,23.2%
same,inhibition at 10 µM,OVCAR-4,42.5%
same,inhibition at 10 µM,NCI/ADR-RES,< 5%
same,melting point,,121 to 124 °C
same,inhibition at 10 µM,NCI-H226,26.7%
same,inhibition at 10 µM,NCI-H322M,9.97%
same,inhibition at 10 µM,HOP-62,12%
same,inhibition at 10 µM,EKVX,42.2%
same,inhibition at 10 µM,NCI-H522,31%
same,inhibition at 10 µM,HOP-92,26%
same,inhibition at 10 µM,NCI-H23,17.5%
same,inhibition at 10 µM,A549/ATCC,39.4%
same,inhibition at 10 µM,NCI-H460,28.8%
"CCOC(=O)c1ccc(NC(=O)COC(=O)c2cn(-c3ccc(S(N)(=O)=O)cc3)nc2-c2ccc(S(C)(=O)=O)cc2)cc1 [Compound 5e, 2-[(4-(Ethoxycarbonyl)phenyl)amino]-2-oxoethyl 3-(4-(methylsulfonyl)phenyl)-1-(4-sulfamoylphenyl)-1H-pyrazole-4-carboxylate]",inhibition at 10 µM,SR,22.1%
same,inhibition at 10 µM,K-562,9.58%
same,inhibition at 10 µM,MOLT-4,< 5%
same,inhibition at 10 µM,HL-60(TB),6.26%
same,inhibition at 10 µM,RPMI-8226,6.03%
same,inhibition at 10 µM,CCRF-CEM,9.47%
same,inhibition at 10 µM,UACC-62,15.8%
same,inhibition at 10 µM,SK-MEL-28,< 5%
same,inhibition at 10 µM,MDA-MB-435,< 5%
same,inhibition at 10 µM,MALME-3M,< 5%
same,inhibition at 10 µM,SK-MEL-5,< 5%
same,inhibition at 10 µM,UACC-257,< 5%
same,inhibition at 10 µM,SK-MEL-2,< 5%
same,inhibition at 10 µM,LOX IMVI,11.6%
same,inhibition at 10 µM,M14,< 5%
same,IC50,hCA XII,0.16 µM and 0.167 µM
same,inhibition at 10 µM,HS 578T,23.7%
same,inhibition at 10 µM,MDA-MB-468,20.3%
same,inhibition at 10 µM,MCF-7,6.56%
same,inhibition at 10 µM,MDA-MB-231/ATCC,< 5%
same,inhibition at 10 µM,PC-3,< 5%
same,inhibition at 10 µM,DU-145,< 5%
same,Ki,hCA IX,40 nM
same,IC50,hCA IX,0.04 ± 0.002 µM
same,inhibition at 10 µM,U251,5.78%
same,inhibition at 10 µM,SF-539,11.8%
same,inhibition at 10 µM,SNB-75,19.6%
same,inhibition at 10 µM,SF-268,5.8%
same,inhibition at 10 µM,SF-295,< 5%
same,inhibition at 10 µM,SNB-19,8.29%
same,inhibition at 10 µM,SK-OV-3,< 5%
same,inhibition at 10 µM,OVCAR-8,< 5%
same,inhibition at 10 µM,IGROV1,< 5%
same,inhibition at 10 µM,OVCAR-5,7.15%
same,inhibition at 10 µM,OVCAR-3,< 5%
same,inhibition at 10 µM,OVCAR-4,12.3%
same,inhibition at 10 µM,NCI/ADR-RES,< 5%
same,melting point,,127 to 130 °C
same,inhibition at 10 µM,NCI-H226,< 5%
same,inhibition at 10 µM,NCI-H322M,< 5%
same,inhibition at 10 µM,HOP-62,< 5%
same,inhibition at 10 µM,EKVX,< 5%
same,inhibition at 10 µM,NCI-H522,13.5%
same,inhibition at 10 µM,HOP-92,< 5%
same,inhibition at 10 µM,NCI-H23,8.79%
same,inhibition at 10 µM,A549/ATCC,< 5%
same,inhibition at 10 µM,NCI-H460,< 5%
